How the values were obtained:
[1] = test system: Pyricularia oryzae; assay: microbe, parasite or virus in culture; format: cell-based; details: 168 h, read-out: control compared to the untreated check (radial growth)
[2] = test system: Rhizoctonia solani; assay: Rhizoctonia solani (rice sheath blight/potato black scurf) in vitro test, radial growth on potato dextrose agar; format: cell-based; details: 168 h, 300 ppm in potato dextrose agar, 25° C., 60% relative humidity, seven days, read-out: control compared to the untreated check (radial growth)
[3] = test system: Phakopsora pachyrhizi; assay: Phakopsora pachyrhizi test in soybean, preventive, in vivo on plants; details: in Glycine max, read-out: Efficacy (% control), disease severity compared to the untreated check
[4] = test system: Colletotrichum capsici; assay: Colletotrichum capsici (anthracnose) in vitro test, radial growth on potato dextrose agar; format: cell-based; details: Colletotrichum truncatum, 168 h; 300 ppm in potato dextrose agar; 25° C., 60% relative humidity, seven days; read-out: control compared to the untreated check (radial growth)
[5] = test system: Alternaria solani; assay: Alternaria solani (early blight of tomato/potato) in vitro test, radial growth on potato dextrose agar; format: cell-based; details: 168 h, 300 ppm in potato dextrose agar, 25° C., 60% relative humidity, seven days, read-out: control compared to the untreated check (radial growth)
[6] = test system: Septoria lycopersici/Corynespora cassicola (CORYCA); assay: Septoria lycopersici/Corynespora cassicola (CORYCA) (leaf spot of tomato) in vitro test, radial growth on potato dextrose agar; format: cell-based; details: 168 h, 300 ppm in potato dextrose agar, 25° C., 70% relative humidity, seven days, read-out: control compared to the untreated check (radial growth)
[7] = test system: Botrytis cinerea; assay: Botrytis cinerea (gray mold) in vitro test, radial growth on potato dextrose agar; format: cell-based; details: 168 h, 300 ppm in potato dextrose agar, 22° C., 90% relative humidity, seven days, read-out: control compared to the untreated check (radial growth)

CCN(C)C=Nc1cc(C)cc(Cc2cccc(F)c2)c1Br [Compound 189, N′-(2-bromo-3-(3-fluorobenzyl)-5-methylphenyl)-N-ethyl-N-methylformimidamide]
≥ 70%: inhibition of growth at 300 ppm [1] | inhibition of growth at 300 ppm [2] | pest or weed control at 500 ppm [3] | inhibition of growth at 300 ppm [4] | inhibition of growth at 300 ppm [5] | inhibition of growth at 300 ppm [6]

CCN(C)C=Nc1cc(F)cc(Cc2cc(F)ccc2Br)c1C [Compound 233, N′-(3-(2-bromo-5-fluorobenzyl)-5-fluoro-2-methylphenyl)-N-ethyl-N-methylformimidamide]
≥ 70%: inhibition of growth at 300 ppm [1] | inhibition of growth at 300 ppm [2] | pest or weed control at 500 ppm [3] | inhibition of growth at 300 ppm [4] | inhibition of growth at 300 ppm [5] | inhibition of growth at 300 ppm [7]

CCN(C)C=Nc1cc(C)cc(Nc2ccccc2F)c1Cl [Compound 23, N′-(2-chloro-3-((2-fluorophenyl)amino)-5-methylphenyl)-N-ethyl-N-methylformimidamide]
≥ 70%: inhibition of growth at 300 ppm [1] | inhibition of growth at 300 ppm [2] | pest or weed control at 500 ppm [3] | inhibition of growth at 300 ppm [4] | inhibition of growth at 300 ppm [5] | inhibition of growth at 300 ppm [6]

CCN(C)C=Nc1cc(C)cc(Nc2cccc(C)c2)c1Cl [Compound 36, N′-(2-chloro-5-methyl-3-(m-tolylamino)phenyl)-N-ethyl-N-methylformimidamide]
≥ 70%: inhibition of growth at 300 ppm [1] | pest or weed control at 500 ppm [3] | inhibition of growth at 300 ppm [4] | inhibition of growth at 300 ppm [5] | inhibition of growth at 300 ppm [6]

CCN(C)C=Nc1cc(C)cc(Nc2cc(C)ccc2Cl)c1Cl [Compound 115, N′-(2-chloro-3-((2-chloro-5-methylphenyl)amino)-5-methylphenyl)-N-ethyl-N-methylformimidamide]
≥ 70%: inhibition of growth at 300 ppm [1] | pest or weed control at 500 ppm [3] | inhibition of growth at 300 ppm [4] | inhibition of growth at 300 ppm [5] | inhibition of growth at 300 ppm [6]

CCN(C)C=Nc1cc(C)cc(Cc2ccc(OC)cc2)c1Cl [Compound 150, N′-(2-chloro-3-(4-methoxybenzyl)-5-methylphenyl)-N-ethyl-N-methylformimidamide]
≥ 70%: inhibition of growth at 300 ppm [1] | inhibition of growth at 300 ppm [2] | pest or weed control at 500 ppm [3] | inhibition of growth at 300 ppm [4] | inhibition of growth at 300 ppm [5] | inhibition of growth at 300 ppm [7]

CCN(C)C=Nc1cc(C)cc(Cc2ccccc2F)c1C [Compound 219, N-ethyl-N′-(3-(2-fluorobenzyl)-2,5-dimethylphenyl)-N-methylformimidamide]
≥ 70%: inhibition of growth at 300 ppm [1] | inhibition of growth at 300 ppm [2] | pest or weed control at 500 ppm [3] | inhibition of growth at 300 ppm [4] | inhibition of growth at 300 ppm [5] | inhibition of growth at 300 ppm [6]

CCN(C)C=Nc1cc(C)cc(Cc2ccccc2C)c1Br [Compound 209, N′-(2-bromo-5-methyl-3-(2-methylbenzyl)phenyl)-N-ethyl-N-methylformimidamide]
≥ 70%: inhibition of growth at 300 ppm [2] | pest or weed control at 500 ppm [3] | inhibition of growth at 300 ppm [4] | inhibition of growth at 300 ppm [5] | inhibition of growth at 300 ppm [6]

CCN(C)C=Nc1cc(Cl)cc(Cc2cccc(F)c2)c1C [Compound 102, N′-(5-chloro-3-(3-fluorobenzyl)-2-methylphenyl)-N-ethyl-N-methylformimidamide]
≥ 70%: inhibition of growth at 300 ppm [1] | inhibition of growth at 300 ppm [2] | pest or weed control at 500 ppm [3] | inhibition of growth at 300 ppm [4] | inhibition of growth at 300 ppm [5] | inhibition of growth at 300 ppm [7]

CCN(C)C=Nc1cc(F)cc(Nc2cc(C)ccc2Cl)c1C [Compound 113, N′-(3-((2-chloro-5-methylphenyl)amino)-5-fluoro-2-methylphenyl)-N-ethyl-N-methylformimidamide]
≥ 70%: inhibition of growth at 300 ppm [1] | inhibition of growth at 300 ppm [2] | pest or weed control at 500 ppm [3] | inhibition of growth at 300 ppm [4] | inhibition of growth at 300 ppm [5] | inhibition of growth at 300 ppm [6]

CCN(C)C=Nc1cc(C)cc(Cc2cc(F)c(OC)c(F)c2)c1Cl [Compound 71, N′-(2-chloro-3-(3,5-difluoro-4-methoxybenzyl)-5-methylphenyl)-N-ethyl-N-methylformimidamide]
≥ 70%: inhibition of growth at 300 ppm [1] | inhibition of growth at 300 ppm [2] | pest or weed control at 500 ppm [3] | inhibition of growth at 300 ppm [4] | inhibition of growth at 300 ppm [5] | inhibition of growth at 300 ppm [7]

CCN(C)C=Nc1cc(F)cc(Nc2cc(C)cc(F)c2)c1C [Compound 114, N-ethyl-N′-(5-fluoro-3-((3-fluoro-5-methylphenyl)amino)-2-methylphenyl)-N-methylformimidamide]
≥ 70%: inhibition of growth at 300 ppm [1] | pest or weed control at 500 ppm [3] | inhibition of growth at 300 ppm [4] | inhibition of growth at 300 ppm [5] | inhibition of growth at 300 ppm [6]

CCN(C)C=Nc1cc(Cl)cc(Cc2cccc(Cl)c2)c1C [Compound 101, N′-(5-chloro-3-(3-chlorobenzyl)-2-methylphenyl)-N-ethyl-N-methylformimidamide]
≥ 70%: inhibition of growth at 300 ppm [1] | pest or weed control at 500 ppm [3] | inhibition of growth at 300 ppm [4] | inhibition of growth at 300 ppm [5] | inhibition of growth at 300 ppm [6]

CCN(C)C=Nc1cc(F)cc(N(C)c2cccc(C)c2F)c1C [Compound 152, N-ethyl-N′-(5-fluoro-3-((2-fluoro-3-methylphenyl)(methyl)amino)-2-methylphenyl)-N-methylformimidamide]
≥ 70%: inhibition of growth at 300 ppm [1] | inhibition of growth at 300 ppm [2] | pest or weed control at 500 ppm [3] | inhibition of growth at 300 ppm [4] | inhibition of growth at 300 ppm [5] | inhibition of growth at 300 ppm [7]

CCN(C)C=Nc1cc(C)cc(Cc2ccccc2Br)c1Cl [Compound 45, N′-(3-(2-bromobenzyl)-2-chloro-5-methylphenyl)-N-ethyl-N-methylformimidamide]
≥ 70%: inhibition of growth at 300 ppm [1] | inhibition of growth at 300 ppm [2] | pest or weed control at 500 ppm [3] | inhibition of growth at 300 ppm [4] | inhibition of growth at 300 ppm [5] | inhibition of growth at 300 ppm [7]

CCN(C)C=Nc1cc(Cl)cc(Cc2ccccc2Br)c1C [Compound 90, N′-(3-(2-bromobenzyl)-5-chloro-2-methylphenyl)-N-ethyl-N-methylformimidamide]
≥ 70%: inhibition of growth at 300 ppm [1] | inhibition of growth at 300 ppm [2] | pest or weed control at 500 ppm [3] | inhibition of growth at 300 ppm [4] | inhibition of growth at 300 ppm [5] | inhibition of growth at 300 ppm [7]

CCN(C)C=Nc1cc(C)cc(Cc2ccc(F)c(C)c2)c1Cl [Compound 68, N′-(2-chloro-3-(4-fluoro-3-methylbenzyl)-5-methylphenyl)-N-ethyl-N-methylformimidamide]
≥ 70%: inhibition of growth at 300 ppm [1] | inhibition of growth at 300 ppm [2] | pest or weed control at 500 ppm [3] | inhibition of growth at 300 ppm [4] | inhibition of growth at 300 ppm [5] | inhibition of growth at 300 ppm [7]

CCN(C)C=Nc1cc(C)cc(Cc2ccc(Br)cc2)c1Cl [Compound 93, N′-(3-(4-bromobenzyl)-2-chloro-5-methylphenyl)-N-ethyl-N-methylformimidamide]
≥ 70%: inhibition of growth at 300 ppm [1] | inhibition of growth at 300 ppm [2] | pest or weed control at 500 ppm [3] | inhibition of growth at 300 ppm [4] | inhibition of growth at 300 ppm [5] | inhibition of growth at 300 ppm [7]

CCN(C)C=Nc1cc(F)cc(N(C)c2cc(Cl)ccc2C)c1C [Compound 98, N′-(3-((5-chloro-2-methylphenyl)(methyl)amino)-5-fluoro-2-methylphenyl)-N-ethyl-N-methylformimidamide]
≥ 70%: inhibition of growth at 300 ppm [1] | inhibition of growth at 300 ppm [2] | pest or weed control at 500 ppm [3] | inhibition of growth at 300 ppm [4] | inhibition of growth at 300 ppm [5] | inhibition of growth at 300 ppm [7]

CCN(C)C=Nc1cc(Cl)cc(NCc2cccc(Cl)c2)c1C [Compound 183, N′-(5-chloro-3-((3-chlorobenzyl)amino)-2-methylphenyl)-N-ethyl-N-methylformimidamide]
≥ 70%: inhibition of growth at 300 ppm [1] | inhibition of growth at 300 ppm [2] | pest or weed control at 500 ppm [3] | inhibition of growth at 300 ppm [4] | inhibition of growth at 300 ppm [5] | inhibition of growth at 300 ppm [7]

CCN(C)C=Nc1cc(C)cc(Cc2ccc(F)cc2C)c1Cl [Compound 65, N′-(2-chloro-3-(4-fluoro-2-methylbenzyl)-5-methylphenyl)-N-ethyl-N-methylformimidamide]
≥ 70%: inhibition of growth at 300 ppm [1] | inhibition of growth at 300 ppm [2] | pest or weed control at 500 ppm [3] | inhibition of growth at 300 ppm [4] | inhibition of growth at 300 ppm [5] | inhibition of growth at 300 ppm [7]

CCc1cccc(Nc2cc(C)cc(N=CN(C)CC)c2Cl)n1 [Compound 226, N′-(2-chloro-3-((6-ethylpyridin-2-yl)amino)-5-methylphenyl)-N-ethyl-N-methylformimidamide]
≥ 70%: inhibition of growth at 300 ppm [4] | inhibition of growth at 300 ppm [5] | inhibition of growth at 300 ppm [6]
